{"source": "patent US20210046071A1", "about": "“TETRACYCLIC COMPOUNDS AND THEIR SALTS, COMPOSITIONS, AND METHODS FOR THEIR USE” (Senhwa Biosciences, Inc., priority 2019, published 2021)", "assay": "Pharmacokinetic studies in human, Compound I in plasma by LC/MS/MS", "format": "in vivo", "settings": "human, plasma", "protocol": "Pharmacokinetic studies and dose escalation studies were conducted in adult patients with metastatic, recurrent, locally, advanced, or unresectable solid malignancy (patients with histologically and/or cytologically confirmed solid malignancy), who received prior anti-cancer treatment(s) until disease progression, at 10 different dose levels of Compound I. Groups 1-7 were administered intravenously on days 1 and 8 of a 4-week cycle at 50, 100, 150, 200, 250, 325, and 475 mg/m^2 (lyophilized formulation), respectively. Groups 8-10 were administered intravenously on days 1,8, and 15 of a 4-week cycle at 325, 475, and 650 mg/m^2 (lyophilized formulation), respectively. Each patient received each dose over 1 hour by IV infusion on days described above.\nThey lyophilized formulation was reconstituted with 5% glucose in sterile water, or similar biologically acceptable fluid, for IV infusion.\nFor patients in Groups 1-7, blood samples were typically collected at Day 1 at pre-infusion (t=−1 h), during infusion at about 30 minutes (t=−0.5 h), immediately post infusion (t=0 h), 30 min post-infusion, 1 h post-infusion, 2 h post-infusion, 4 h post-infusion, and 6 h post-infusion, as well as at about 24 h post-infusion, 48 h post-infusion, and 72 h post-infusion. On Day 8, blood samples were typically collected at pre-infusion (t=−1 h), during infusion at about 30 minutes (t=−0.5 h), immediately post infusion (t=0 h), 30 min post-infusion, 1 h post-infusion, 2 h post-infusion, 4 h post-infusion, and 6 h post-infusion, as well as at about 24 h post-infusion, and 168 h post-infusion (Day 15).\nFor patients in Groups 8-10, blood samples were typically collected at Day 1 at pre-infusion (t=−1 h), during infusion at about 30 minutes (t=−0.5 h), immediately post infusion (t=0 h), 30 min post-infusion, 1 h post-infusion, 2 h post-infusion, 4 h post-infusion, and 6 h post-infusion, as well as at about 24 h post-infusion, 48 h post-infusion, and 72 h post-infusion. On Day 8, blood samples were typically collected at pre-infusion (t=−1 h). On Day 15, blood samples were typically collected at pre-infusion (t=−1 h), during infusion at about 30 minutes (t=−0.5 h), immediately post infusion (t=0 h), 30 min post-infusion, 1 h post-infusion, 2 h post-infusion, 4 h post-infusion, and 6 h post-infusion, as well as at about 24 h post-infusion, and 168 h post-infusion (Day 22).\nLevels of Compound I in patient's plasma were analyzed by liquid chromatography tandem mass spectrometry (LC/MS/MS) assay. Experimental procedures of the validated methods are summarized below. The pharmacokinetic parameters after first dose and second dose for Groups 1-7 and after first dose and third dose for Groups 8-10 are shown in Tables 2A-2J. In Tables 2A-2J: SD=standard deviation; Cmax=maximum observed concentration; D=dose; Tmax=time to maximum observed concentration; T1/2=elimination half-life; Vd=volume of distribution; CL=drug clearance; and AUC∞=area under the concentration-time curve from time zero to infinity (total exposure).\nThe concentrations of Compound I in human plasma samples collected from subjects of as discussed above. Compound I concentrations in plasma samples were measured based on 9 levels of calibration standards from 5.00 to 5000 ng/mL, and 3 levels of QC at 15.0 ng/mL (low), 2500 ng/mL (mid), and 4000 ng/mL (high).\nTwo reference standard master stock solutions of Compound I were prepared by dissolving the Compound 1 reference standard with 50:50:0.1 ACN:diH2O:FA (v/v/v) and sonicating for 7 minutes (diH2O=deionized water). The resulting solutions were further diluted with 50:50:0.1 ACN:diH2O:FA (v/v/v) into a series of working stock solutions (WSS) for spiking of Compound I calibration standards and QC samples. The master stock solutions were prepared fresh on the day of assay, or stored at nominal 2° C. to 8° C. for later use. Master stock solutions were used within the stability timeframe. […]", "key": {"[1]": {"settings": "intravenous, Groups 8-10, Day 1, range of group means"}, "[2]": {"settings": "iv, 50 mg/m2, Group 1, 50 mg/m^2 IV, Day 1, mean, n = 4"}, "[3]": {"settings": "iv, 50 mg/m2, Group 1, 50 mg/m^2 IV, Day 8, mean, n = 3"}, "[4]": {"settings": "iv, 100 mg/m2, Group 2, 100 mg/m^2 IV, Day 1, mean, n = 4"}, "[5]": {"settings": "iv, 100 mg/m2, Group 2, 100 mg/m^2 IV, Day 8, mean, n = 3"}, "[6]": {"settings": "iv, 150 mg/m2, Group 3, 150 mg/m^2 IV, Day 1, mean, n = 4"}}, "note": "Where two headings read alike, the source gives them in different places.", "data": [{"smiles": "Cc1cnc(CNC(=O)c2c(=O)c3ccc(N4CCCN(C)CC4)nc3n3c2sc2ccccc23)cn1", "note": "[Compound I, 2-(4-Methyl-[1,4]diazepan-1-yl)-5-oxo-5H-7-thia-1,11b-diaza-benzo[c]fluorene-6-carboxylic acid (5-methyl-pyrazin-2-ylmethyl)-amide]", "values": [{"measurement": "Cmax", "setting": "intravenous, 325 mg/m2, Groups 8-10, Day 15, range of group means (325 mg/m^2 outlier apart)", "value": "2870 to 4170", "unit": "ng/mL"}, {"measurement": "Tmax", "setting": "intravenous, Groups 1-7, 50 to 475 mg/m^2, Day 1, range of group means", "value": "30.5 to 71.4", "unit": "min"}, {"measurement": "AUC(0-inf)", "setting": "intravenous, Groups 1-7, Day 1, range of group means, read-out: Total exposures (AUC∞)", "value": "6650 to 36200", "unit": "ng·h/mL"}, {"measurement": "half-life", "setting": "intravenous, Groups 1-7, Day 1 dose, range of group means, read-out: Apparent elimination half-lives", "value": "1.55 to 3.41", "unit": "days"}, {"measurement": "Cmax", "setting": "intravenous, Groups 1-7, Day 8, range of group means", "value": "642 to 1710", "unit": "ng/mL"}, {"measurement": "AUC(0-inf)", "setting": "intravenous, Groups 1-7, Day 8, range of group means, read-out: Total exposures (AUC∞)", "value": "9120 to 35400", "unit": "ng·h/mL"}, {"measurement": "half-life", "setting": "intravenous, Groups 1-7, Day 8 dose, range of group means, read-out: Apparent elimination half-lives", "value": "1.78 to 4.04", "unit": "days"}, {"measurement": "Cmax", "setting": "[1]", "value": "1140 to 3080", "unit": "ng/mL"}, {"measurement": "Tmax", "setting": "[1]", "value": "46 to 70.8", "unit": "min"}, {"measurement": "AUC(0-inf)", "setting": "intravenous, Groups 8-10, Day 1, range of group means, read-out: Total exposures (AUC∞)", "value": "29100 to 57500", "unit": "ng·h/mL"}, {"measurement": "half-life", "setting": "intravenous, Groups 8-10, Day 1 dose, range of group means, read-out: Apparent elimination half-lives", "value": "2.56 to 5.08", "unit": "days"}, {"measurement": "AUC(0-inf)", "setting": "intravenous, Groups 8-10, Day 15, range of group means, read-out: Total exposures (AUC∞)", "value": "32500 to 62200", "unit": "ng·h/mL"}, {"measurement": "half-life", "setting": "intravenous, Groups 8-10, Day 15 dose, range of group means, read-out: Apparent elimination half-lives", "value": "2.46 to 3.9", "unit": "days"}, {"measurement": "Cmax", "setting": "[2]", "value": 728, "unit": "ng/mL"}, {"measurement": "Tmax", "setting": "[2]", "value": 45.5, "unit": "min"}, {"measurement": "Vd", "setting": "[2]", "value": 866, "unit": "L"}, {"measurement": "clearance", "setting": "[2]", "value": 265, "unit": "mL/min"}, {"measurement": "AUC(0-inf)", "setting": "iv, 50 mg/m2, Group 1, 50 mg/m^2 IV, Day 1, mean, n = 4, read-out: AUC∞", "value": 16300, "unit": "ng·h/mL"}, {"measurement": "half-life", "setting": "iv, 50 mg/m2, Group 1, 50 mg/m^2 IV, Day 1, mean, n = 4, read-out: T1/2 (converted)", "value": 2.5, "unit": "days"}, {"measurement": "Cmax", "setting": "[3]", "value": 642, "unit": "ng/mL"}, {"measurement": "Tmax", "setting": "[3]", "value": 60.6, "unit": "min"}, {"measurement": "Vd", "setting": "[3]", "value": 752, "unit": "L"}, {"measurement": "clearance", "setting": "[3]", "value": 275, "unit": "mL/min"}, {"measurement": "AUC(0-inf)", "setting": "iv, 50 mg/m2, Group 1, 50 mg/m^2 IV, Day 8, mean, n = 3, read-out: AUC∞", "value": 9120, "unit": "ng·h/mL"}, {"measurement": "half-life", "setting": "iv, 50 mg/m2, Group 1, 50 mg/m^2 IV, Day 8, mean, n = 3, read-out: T1/2 (converted)", "value": 1.78, "unit": "days"}, {"measurement": "Vd", "setting": "iv, 100 mg/m2, Group 2, 100 mg/m^2 IV, Day 1, mean, n = 3", "value": 1400, "unit": "L"}, {"measurement": "AUC(0-inf)", "setting": "iv, 100 mg/m2, Group 2, 100 mg/m^2 IV, Day 1, mean, n = 3, read-out: AUC∞", "value": 6650, "unit": "ng·h/mL"}, {"measurement": "half-life", "setting": "iv, 100 mg/m2, Group 2, 100 mg/m^2 IV, Day 1, mean, n = 3, read-out: T1/2 (converted)", "value": 1.55, "unit": "days"}, {"measurement": "Cmax", "setting": "[4]", "value": 1090, "unit": "ng/mL"}, {"measurement": "Tmax", "setting": "[4]", "value": 30.5, "unit": "min"}, {"measurement": "Cmax", "setting": "[5]", "value": 804, "unit": "ng/mL"}, {"measurement": "Tmax", "setting": "[5]", "value": 42, "unit": "min"}, {"measurement": "Vd", "setting": "[5]", "value": 1850, "unit": "L"}, {"measurement": "AUC(0-inf)", "setting": "iv, 100 mg/m2, Group 2, 100 mg/m^2 IV, Day 8, mean, n = 3, read-out: AUC∞", "value": 9160, "unit": "ng·h/mL"}, {"measurement": "half-life", "setting": "iv, 100 mg/m2, Group 2, 100 mg/m^2 IV, Day 8, mean, n = 3, read-out: T1/2 (converted)", "value": 2.52, "unit": "days"}, {"measurement": "Cmax", "setting": "[6]", "value": 1230, "unit": "ng/mL"}, {"measurement": "Tmax", "setting": "[6]", "value": 39, "unit": "min"}, {"measurement": "Vd", "setting": "[6]", "value": 900, "unit": "L"}, {"measurement": "clearance", "setting": "[6]", "value": 252, "unit": "mL/min"}, {"measurement": "AUC(0-inf)", "setting": "iv, 150 mg/m2, Group 3, 150 mg/m^2 IV, Day 1, mean, n = 4, read-out: AUC∞", "value": 20000, "unit": "ng·h/mL"}, {"measurement": "half-life", "setting": "iv, 150 mg/m2, Group 3, 150 mg/m^2 IV, Day 1, mean, n = 4, read-out: T1/2 (converted)", "value": 2, "unit": "days"}, {"measurement": "Cmax", "setting": "iv, 150 mg/m2, Group 3, 150 mg/m^2 IV, Day 8, mean, n = 4", "value": 1270, "unit": "ng/mL"}]}]}
